What was measured:
Assay in all cases: KINOMEscan competition binding
Conditions in all cases: compound 10.0 µM
ACVR1 (human) = ACVR1 (human) (UniProt Q04771)
FGFR1 (human) = FGFR1 (human) (UniProt P11362)
RPS6KA5 KD1 (human) = RPS6KA5 KD1 (human) (UniProt O75582)
EPHA4 (human) = EPHA4 (human) (UniProt P54764)
MAP4K1 (human) = MAP4K1 (human) (UniProt Q92918)
DYRK1A (human) = DYRK1A (human) (UniProt Q13627)
IKBKE (human) = IKBKE (human) (UniProt Q14164)
ACVR1B (human) = ACVR1B (human) (UniProt P36896)
TXK (human) = TXK (human) (UniProt P42681)
CIT (human) = CIT (human) (UniProt O14578)
PRKACA (human) = PRKACA (human) (UniProt P17612)
HUNK (human) = HUNK (human) (UniProt P57058)
FGR (human) = FGR (human) (UniProt P09769)
SRPK1 (human) = SRPK1 (human) (UniProt Q96SB4)
PRKD1 (human) = PRKD1 (human) (UniProt Q15139)
PRKAA2 (human) = PRKAA2 (human) (UniProt P54646)
SRMS (human) = SRMS (human) (UniProt Q9H3Y6)
Sequence of SRMS (human) (Q9H3Y6 whole entry, looked up): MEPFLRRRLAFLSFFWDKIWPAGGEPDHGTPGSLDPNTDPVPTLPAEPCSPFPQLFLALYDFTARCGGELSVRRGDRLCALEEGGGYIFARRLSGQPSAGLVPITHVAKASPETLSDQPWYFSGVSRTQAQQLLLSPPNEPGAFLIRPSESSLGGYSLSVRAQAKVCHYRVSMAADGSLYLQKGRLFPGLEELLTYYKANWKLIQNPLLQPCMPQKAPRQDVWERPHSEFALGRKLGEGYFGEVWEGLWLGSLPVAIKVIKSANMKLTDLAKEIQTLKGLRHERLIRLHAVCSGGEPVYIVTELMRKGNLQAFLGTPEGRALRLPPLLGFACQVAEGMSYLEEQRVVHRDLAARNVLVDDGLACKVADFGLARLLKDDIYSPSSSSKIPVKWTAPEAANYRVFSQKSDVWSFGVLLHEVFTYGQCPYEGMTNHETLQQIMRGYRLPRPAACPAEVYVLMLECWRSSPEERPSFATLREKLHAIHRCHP

DMPK (human) = DMPK (human) (UniProt Q09013)
[1] = tested on: LRRK2 (human), Q5S007 [G2019S]
RPS6KA1 KD1 (human) = RPS6KA1 KD1 (human) (UniProt Q15418)
Sequence of RPS6KA1 KD1 (human) (Q15418 whole entry, looked up): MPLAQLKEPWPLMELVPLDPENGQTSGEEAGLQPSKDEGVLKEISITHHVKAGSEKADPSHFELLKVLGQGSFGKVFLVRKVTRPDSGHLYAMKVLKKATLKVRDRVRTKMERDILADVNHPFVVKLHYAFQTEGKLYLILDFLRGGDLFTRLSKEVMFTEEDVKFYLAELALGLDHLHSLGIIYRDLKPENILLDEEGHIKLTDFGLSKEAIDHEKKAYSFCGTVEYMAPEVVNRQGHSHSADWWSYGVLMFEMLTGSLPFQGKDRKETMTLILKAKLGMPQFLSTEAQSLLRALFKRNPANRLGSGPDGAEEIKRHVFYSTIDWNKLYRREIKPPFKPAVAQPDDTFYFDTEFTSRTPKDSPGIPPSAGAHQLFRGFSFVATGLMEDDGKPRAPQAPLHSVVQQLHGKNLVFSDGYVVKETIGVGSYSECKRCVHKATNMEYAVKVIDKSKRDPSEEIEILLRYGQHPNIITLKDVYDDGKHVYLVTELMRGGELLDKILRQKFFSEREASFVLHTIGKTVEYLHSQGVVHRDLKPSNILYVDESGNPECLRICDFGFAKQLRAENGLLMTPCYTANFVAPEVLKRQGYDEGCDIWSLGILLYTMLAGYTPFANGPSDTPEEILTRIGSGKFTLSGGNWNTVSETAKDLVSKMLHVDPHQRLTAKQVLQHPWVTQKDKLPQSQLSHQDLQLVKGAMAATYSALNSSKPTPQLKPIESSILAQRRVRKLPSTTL

MYLK3 (human) = MYLK3 (human) (UniProt Q32MK0)
Sequence of MYLK3 (human) (Q32MK0 whole entry, looked up): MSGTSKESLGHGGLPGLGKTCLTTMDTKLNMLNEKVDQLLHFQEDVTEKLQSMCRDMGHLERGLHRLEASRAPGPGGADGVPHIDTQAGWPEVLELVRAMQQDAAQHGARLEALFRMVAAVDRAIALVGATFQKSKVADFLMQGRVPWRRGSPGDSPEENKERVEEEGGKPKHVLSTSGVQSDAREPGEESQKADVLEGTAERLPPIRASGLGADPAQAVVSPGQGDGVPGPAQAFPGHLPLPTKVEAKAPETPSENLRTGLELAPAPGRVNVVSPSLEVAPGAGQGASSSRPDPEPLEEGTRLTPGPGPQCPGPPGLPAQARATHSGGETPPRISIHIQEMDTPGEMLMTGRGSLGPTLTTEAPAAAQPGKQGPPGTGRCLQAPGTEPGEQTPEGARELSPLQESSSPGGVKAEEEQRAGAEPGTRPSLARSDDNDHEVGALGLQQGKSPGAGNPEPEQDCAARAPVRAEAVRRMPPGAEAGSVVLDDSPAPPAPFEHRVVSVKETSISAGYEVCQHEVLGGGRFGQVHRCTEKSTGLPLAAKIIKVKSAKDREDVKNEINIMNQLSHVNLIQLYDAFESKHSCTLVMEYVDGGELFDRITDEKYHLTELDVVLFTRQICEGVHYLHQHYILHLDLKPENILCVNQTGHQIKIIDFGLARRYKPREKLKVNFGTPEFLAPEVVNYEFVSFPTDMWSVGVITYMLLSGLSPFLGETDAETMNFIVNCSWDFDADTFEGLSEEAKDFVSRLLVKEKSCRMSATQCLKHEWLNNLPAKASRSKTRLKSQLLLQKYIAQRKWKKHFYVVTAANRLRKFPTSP

CDK7 (human) = CDK7 (human) (UniProt P50613)
CASK (human) = CASK (human) (UniProt O14936)
Sequence of CASK (human) (O14936 whole entry, looked up): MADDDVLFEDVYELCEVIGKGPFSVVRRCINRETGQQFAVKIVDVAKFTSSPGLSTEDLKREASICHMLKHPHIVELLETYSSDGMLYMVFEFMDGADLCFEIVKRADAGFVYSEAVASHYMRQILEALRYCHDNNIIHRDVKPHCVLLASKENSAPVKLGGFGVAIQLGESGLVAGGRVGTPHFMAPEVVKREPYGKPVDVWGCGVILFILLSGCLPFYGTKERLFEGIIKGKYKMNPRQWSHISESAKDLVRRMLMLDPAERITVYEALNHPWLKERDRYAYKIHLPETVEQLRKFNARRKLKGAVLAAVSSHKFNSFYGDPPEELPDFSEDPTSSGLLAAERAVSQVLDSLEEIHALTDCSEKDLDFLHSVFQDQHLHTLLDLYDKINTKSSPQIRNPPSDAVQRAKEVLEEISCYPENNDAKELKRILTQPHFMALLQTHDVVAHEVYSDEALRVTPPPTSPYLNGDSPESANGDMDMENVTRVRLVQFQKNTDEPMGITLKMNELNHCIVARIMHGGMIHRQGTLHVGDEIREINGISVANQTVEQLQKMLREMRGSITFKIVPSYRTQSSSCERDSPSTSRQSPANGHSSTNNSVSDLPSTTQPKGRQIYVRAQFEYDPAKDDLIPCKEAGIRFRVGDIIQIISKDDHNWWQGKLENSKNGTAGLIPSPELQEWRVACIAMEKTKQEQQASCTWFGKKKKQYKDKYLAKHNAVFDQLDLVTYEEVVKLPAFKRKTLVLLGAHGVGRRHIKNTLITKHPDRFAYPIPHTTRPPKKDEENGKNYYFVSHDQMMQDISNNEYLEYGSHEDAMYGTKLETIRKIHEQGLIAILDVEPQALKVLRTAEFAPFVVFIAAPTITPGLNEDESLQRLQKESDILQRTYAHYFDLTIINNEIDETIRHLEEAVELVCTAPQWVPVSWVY

[2] = target: JAK1 JH1 catalytic (human) (UniProt P23458)
NEK4 (human) = NEK4 (human) (UniProt P51957)
BMPR2 (human) = BMPR2 (human) (UniProt Q13873)
ACVR2A (human) = ACVR2A (human) (UniProt P27037)
[3] = tested on: EGFR (human), P00533 [L858R]
AKT2 (human) = AKT2 (human) (UniProt P31751)
TYRO3 (human) = TYRO3 (human) (UniProt Q06418)
FYN (human) = FYN (human) (UniProt P06241)
PIP4K2B (human) = PIP4K2B (human) (UniProt P78356)
Sequence of PIP4K2B (human) (P78356 whole entry, looked up): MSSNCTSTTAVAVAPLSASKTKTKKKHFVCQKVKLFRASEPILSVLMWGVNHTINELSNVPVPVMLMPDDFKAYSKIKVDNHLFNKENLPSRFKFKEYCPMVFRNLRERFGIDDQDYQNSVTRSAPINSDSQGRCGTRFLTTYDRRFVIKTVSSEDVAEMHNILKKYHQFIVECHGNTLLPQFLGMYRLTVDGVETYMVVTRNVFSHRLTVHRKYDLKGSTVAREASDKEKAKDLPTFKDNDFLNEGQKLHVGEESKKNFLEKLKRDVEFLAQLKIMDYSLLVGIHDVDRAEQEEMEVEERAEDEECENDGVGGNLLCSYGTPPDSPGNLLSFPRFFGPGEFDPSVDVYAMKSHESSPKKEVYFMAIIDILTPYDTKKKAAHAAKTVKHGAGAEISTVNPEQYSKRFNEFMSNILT

PRKCQ (human) = PRKCQ (human) (UniProt Q04759)
Sequence of PRKCQ (human) (Q04759 whole entry, looked up): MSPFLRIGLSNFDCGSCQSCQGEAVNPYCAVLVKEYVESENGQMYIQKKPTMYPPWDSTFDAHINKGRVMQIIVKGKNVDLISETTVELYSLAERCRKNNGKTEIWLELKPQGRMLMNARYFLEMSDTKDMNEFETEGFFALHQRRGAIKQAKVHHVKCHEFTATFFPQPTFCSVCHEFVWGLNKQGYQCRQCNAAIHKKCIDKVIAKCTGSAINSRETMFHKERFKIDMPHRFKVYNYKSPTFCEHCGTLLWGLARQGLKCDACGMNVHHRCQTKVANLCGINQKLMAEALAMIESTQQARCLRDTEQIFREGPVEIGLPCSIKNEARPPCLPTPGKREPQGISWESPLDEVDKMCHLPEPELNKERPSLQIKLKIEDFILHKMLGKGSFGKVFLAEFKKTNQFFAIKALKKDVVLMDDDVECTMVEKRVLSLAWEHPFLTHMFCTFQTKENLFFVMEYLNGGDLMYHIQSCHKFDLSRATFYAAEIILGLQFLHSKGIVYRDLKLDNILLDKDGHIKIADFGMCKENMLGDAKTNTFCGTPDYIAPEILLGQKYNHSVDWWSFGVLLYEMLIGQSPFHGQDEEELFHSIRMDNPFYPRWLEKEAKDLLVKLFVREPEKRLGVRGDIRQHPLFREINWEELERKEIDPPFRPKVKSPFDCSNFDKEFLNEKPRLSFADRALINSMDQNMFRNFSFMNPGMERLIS

PRKX (human) = PRKX (human) (UniProt P51817)
PHKG1 (human) = PHKG1 (human) (UniProt Q16816)
MAPKAPK2 (human) = MAPKAPK2 (human) (UniProt P49137)
Sequence of MAPKAPK2 (human) (P49137 whole entry, looked up): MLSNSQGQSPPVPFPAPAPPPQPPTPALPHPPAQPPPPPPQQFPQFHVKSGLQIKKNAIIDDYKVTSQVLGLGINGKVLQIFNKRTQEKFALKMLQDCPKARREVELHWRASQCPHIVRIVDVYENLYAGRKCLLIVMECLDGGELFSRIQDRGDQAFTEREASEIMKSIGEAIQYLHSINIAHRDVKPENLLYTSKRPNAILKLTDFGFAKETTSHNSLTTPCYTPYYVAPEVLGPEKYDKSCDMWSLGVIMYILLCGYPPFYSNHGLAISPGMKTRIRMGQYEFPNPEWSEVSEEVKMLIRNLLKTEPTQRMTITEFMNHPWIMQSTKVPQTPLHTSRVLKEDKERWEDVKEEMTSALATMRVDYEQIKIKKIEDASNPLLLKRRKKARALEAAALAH

AXL (human) = AXL (human) (UniProt P30530)
PAK4 (human) = PAK4 (human) (UniProt O96013)
MAP3K13 (human) = MAP3K13 (human) (UniProt O43283)
GRK1 (human) = GRK1 (human) (UniProt Q15835)

Sequence of ACVR1 (human) (Q04771 whole entry, looked up): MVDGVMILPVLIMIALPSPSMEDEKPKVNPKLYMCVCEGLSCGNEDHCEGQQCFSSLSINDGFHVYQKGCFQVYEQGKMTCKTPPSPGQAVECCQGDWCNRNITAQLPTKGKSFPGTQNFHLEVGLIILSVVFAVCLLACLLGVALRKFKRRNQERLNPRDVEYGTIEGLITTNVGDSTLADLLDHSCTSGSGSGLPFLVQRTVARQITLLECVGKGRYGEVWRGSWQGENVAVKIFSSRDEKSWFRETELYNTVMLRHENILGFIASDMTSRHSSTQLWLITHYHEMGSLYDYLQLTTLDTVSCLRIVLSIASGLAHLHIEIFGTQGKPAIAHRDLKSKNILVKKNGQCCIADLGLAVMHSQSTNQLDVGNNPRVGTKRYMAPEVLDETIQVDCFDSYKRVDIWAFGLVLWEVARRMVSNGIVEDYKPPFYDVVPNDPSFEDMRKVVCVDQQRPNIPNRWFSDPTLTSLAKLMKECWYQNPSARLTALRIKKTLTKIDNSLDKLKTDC

Which results are given for `CCCS(=O)(=O)Nc1ccc(F)c(C(=O)c2c[nH]c3ncc(Cl)cc23)c1F`?
kinase still bound, per cent of control (ACVR1 (human)): 100%; kinase still bound, per cent of control (FGFR1 (human)): 34%; kinase still bound, per cent of control (RPS6KA5 KD1 (human)): 100%; kinase still bound, per cent of control (EPHA4 (human)): 100%; kinase still bound, per cent of control (MAP4K1 (human)): 70%; kinase still bound, per cent of control (DYRK1A (human)): 76%; kinase still bound, per cent of control (IKBKE (human)): 91%; kinase still bound, per cent of control (ACVR1B (human)): 98%; kinase still bound, per cent of control (TXK (human)): 69%; kinase still bound, per cent of control (CIT (human)): 66%; kinase still bound, per cent of control (PRKACA (human)): 94%; kinase still bound, per cent of control (HUNK (human)): 24%; kinase still bound, per cent of control (FGR (human)): 8.4%; kinase still bound, per cent of control (SRPK1 (human)): 100%; kinase still bound, per cent of control (PRKD1 (human)): 31%; kinase still bound, per cent of control (PRKAA2 (human)): 46%; kinase still bound, per cent of control (SRMS (human)): 0.05%; kinase still bound, per cent of control (DMPK (human)): 100%; kinase still bound, per cent of control [1]: 38%; kinase still bound, per cent of control (RPS6KA1 KD1 (human)): 71%; kinase still bound, per cent of control (MYLK3 (human)): 41%; kinase still bound, per cent of control (CDK7 (human)): 69%; kinase still bound, per cent of control (CASK (human)): 51%; kinase still bound, per cent of control [2]: 77%; kinase still bound, per cent of control (NEK4 (human)): 71%; kinase still bound, per cent of control (BMPR2 (human)): 67%; kinase still bound, per cent of control (ACVR2A (human)): 100%; kinase still bound, per cent of control [3]: 72%; kinase still bound, per cent of control (AKT2 (human)): 68%; kinase still bound, per cent of control (TYRO3 (human)): 100%; kinase still bound, per cent of control (FYN (human)): 11%; kinase still bound, per cent of control (PIP4K2B (human)): 100%; kinase still bound, per cent of control (PRKCQ (human)): 79%; kinase still bound, per cent of control (PRKX (human)): 100%; kinase still bound, per cent of control (PHKG1 (human)): 100%; kinase still bound, per cent of control (MAPKAPK2 (human)): 100%; kinase still bound, per cent of control (AXL (human)): 40%; kinase still bound, per cent of control (PAK4 (human)): 57%; kinase still bound, per cent of control (MAP3K13 (human)): 100%; kinase still bound, per cent of control (GRK1 (human)): 100%
